The structures appear in SMILES notation. Where two headings read alike, the source gives them in different places.

For data set [1], the system named is SKBR-3, SKOV-3, PC-3, U-87 cells. Kind of data set: SRB cytotoxicity assay, values summarised over cancer cell lines. Type of data set: cell-based, human.
Data set [2] has as its system U-87MG cells (glioblastoma cell line). Description: cells. Type of data set: cell-based, human. The conditions noted are these: for IC50: Homo sapiens, U-87 MG, SRB assay, 72 h exposure, read-out: Anticancer activity IC50 (nM) ± SD, U-87. For orientation: Sulforhodamine B stains cellular protein and so reports cell mass.
Data set [3] concerns SKBR-3 (human breast cancer cell line). Kind of data set: cells. It is filed as cell-based. The conditions noted are these: for IC50: SRB assay, 72 h exposure, read-out: Anticancer activity IC50 (nM) ± SD, SKBR-3.
The subject of data set [4] is SKOV-3 (ovarian cancer cell line). Kind of data set: cells. It is filed as cell-based, human. The conditions noted are these: Homo sapiens, SK-OV-3; SRB assay, 72 h exposure; read-out: Anticancer activity IC50 (nM) ± SD, SKOV-3.
Another data set in a line: in vitro. The settings on record: human, Toxicity IC50 (nM) ± SD, HDF, healthy cell line HDF, SRB assay, 72 h exposure.
Data set [5] concerns PC-3 (human prostate cancer cell line). Description: cells. Type of data set: cell-based. The settings on record: Homo sapiens; SRB assay, 72 h exposure; read-out: Anticancer activity IC50 (nM) ± SD, PC-3.
In data set [6] the test system is Human Dermal Fibroblasts cell line (HDF). The conditions noted are these: read-out: Toxicity IC50 (nM) ± SD, HDF; healthy cell line HDF, SRB assay, 72 h exposure.
The mark [7] stands for this setting: Homo sapiens, SKBR-3, SKOV-3, PC-3, U-87, read-out: Anticancer IC50 over the studied cancer cell lines.

On to `C/C=C/COc1cc2c(ccc1=O)-c1c(cc(OC)c(OC)c1OC)CC[C@@H]2NC(C)=O` [Compound 3e], for which the IC50 is 0.94 to 0.98 nM in data set [1] (setting [7]); roughly 0.9 nM in data set [1] (SKBR-3, SKOV-3, PC-3, U-87, read-out: Anticancer IC50 over the studied cancer cell lines); 0.95 ± 0.01 nM in data set [2]; 0.94 ± 0.06 nM in data set [3] (Homo sapiens, SK-BR-3, 72 h); 0.98 ± 0.02 nM in data set [4]; 2.13 ± 0.06 nM in “in vitro”. Further, the IC50 in data set [5] amounted to 0.96 ± 0.01 nM. In addition, the “Selectivity indexes (SIs), all studied cancer cell lines” value in data set [1] (SI = IC50 HDF/IC50 cancer cell line) is recorded as roughly 2.2.

Regarding `COc1cc2c(c(OC)c1OC)-c1ccc(=O)c(OCc3ccc(/C=C/c4ccccn4)cc3)cc1[C@@H](NC(C)=O)CC2` [Compound 7b], the IC50 in data set [1] (setting [7]) was 2 to 2.5 nM; in data set [2], 2.43 ± 0.12 nM; in data set [3] (Homo sapiens, SK-BR-3, 72 h), 2.09 ± 0.33 nM; in data set [4], 2.69 ± 0.02 nM; in “in vitro”, 4 to 5 nM; in data set [5], 2.45 ± 0.52 nM. For the same compound, in data set [6], the IC50 came out at 5.11 ± 0.85 nM.

Regarding `COc1cc2c(c(OC)c1OC)-c1ccc(=O)c(OCc3ccc(/C=C/c4cnc5ccccc5c4)cc3)cc1[C@@H](NC(C)=O)CC2` [Compound 7c], the IC50 in data set [1] (setting [7]) was 1.03 to 1.73 nM; in data set [2], 1.73 ± 0.09 nM; in data set [3] (Homo sapiens, SK-BR-3, 72 h) it was 1.51 ± 0.02 nM; in data set [4], 1.03 ± 0.09 nM; in “in vitro” it was 2.16 ± 0.6 nM; in data set [5], 1.52 ± 0.01 nM.

As for `COc1cc2c(c(OC)c1OC)-c1ccc(OCc3cn(C4CC(n5cc(C)c(=O)[nH]c5=O)OC4CO)nn3)c(=O)cc1C(NC(C)=O)CC2` (stereo not drawn) [Compound 6e], the IC50 in data set [2] is 3.84 ± 0.02 nM; in data set [3] (Homo sapiens, SK-BR-3, 72 h), 3.02 ± 0.31 nM; in data set [4] it was 3.33 ± 0.11 nM; in the data set “in vitro” it was 5.18 ± 0.18 nM; in data set [5] it was 3.5 ± 0.49 nM.

As for `COc1cc2c(c(OC)c1OC)-c1ccc(OCc3ccc(/C=C/c4ccccn4)cc3)c(=O)cc1[C@@H](NC(C)=O)CC2` [Compound 8b], the IC50 was 2 to 2.5 nM in data set [1] (setting [7]); 2.49 ± 0.05 nM in data set [2]; 2.77 ± 0.04 nM in data set [3] (Homo sapiens, SK-BR-3, 72 h); 2.84 ± 0.03 nM in data set [4]; 4 to 5 nM in “in vitro”; 2.63 ± 0.77 nM in data set [5]. For the same compound, in data set [6], the IC50 was 4.83 ± 0.27 nM.

Regarding `COc1cc2c(c(OC)c1OC)-c1ccc(=O)c(OCc3cn([C@@H]4O[C@H](COC(C)=O)[C@@H](OC(C)=O)[C@H](OC(C)=O)[C@H]4NC(C)=O)nn3)cc1[C@@H](NC(C)=O)CC2` [Compound 5d], the IC50 in data set [2] stood at 6.11 ± 0.26 nM; in data set [3] (Homo sapiens, SK-BR-3, 72 h) it was 6.29 ± 0.25 nM; in data set [4], 6.03 ± 0.19 nM; in the data set “in vitro”, 7.99 ± 0.04 nM; in data set [5], 6.39 ± 0.08 nM.

On to `CCOC(=O)COc1ccc2c(cc1=O)[C@@H](NC(C)=O)CCc1cc(OC)c(OC)c(OC)c1-2` [Compound 4g], for which the IC50 in data set [2] was 1.27 ± 0.01 nM; in data set [3] (Homo sapiens, SK-BR-3, 72 h), 1.28 ± 0.17 nM; in data set [4] it was 1.06 ± 0.22 nM; in the data set “in vitro” it was 2.05 ± 0.02 nM; in data set [5], 1.15 ± 0.03 nM.

As for `COc1cc2c(c(OC)c1OC)-c1ccc(OCc3cn(Cc4ccccc4)nn3)c(=O)cc1[C@@H](NC(C)=O)CC2` [Compound 6a], the IC50 in data set [2] came to 2.78 ± 0.05 nM; in data set [3] (Homo sapiens, SK-BR-3, 72 h), 2.33 ± 0.09 nM; in data set [4] it was 2.79 ± 0.07 nM; in the data set “in vitro”, 3.88 ± 0.14 nM; in data set [5] it was 2.04 ± 0.44 nM.

Regarding `COc1cc2c(c(OC)c1OC)-c1ccc(=O)c(OCc3cn(Cc4ccc(C#N)cc4)nn3)cc1[C@@H](NC(C)=O)CC2` [Compound 5b], the IC50 in data set [2] stood at 2.57 ± 0.13 nM; in data set [3] (Homo sapiens, SK-BR-3, 72 h), 2.07 ± 0.08 nM; in data set [4], 2.88 ± 0.47 nM; in the data set “in vitro”, 4.92 ± 0.51 nM; in data set [5], 2.13 ± 0.02 nM.

As for `C#CCOc1ccc2c(cc1=O)[C@@H](NC(C)=O)CCc1cc(OC)c(OC)c(OC)c1-2` [Compound 4f], the IC50 in data set [2] was 1.06 ± 0.04 nM; in data set [3] (Homo sapiens, SK-BR-3, 72 h), 1.48 ± 0.09 nM; in data set [4] it was 1.52 ± 0.02 nM; in “in vitro”, 1.85 ± 0.03 nM; in data set [5], 1.46 ± 0.13 nM.

Consider `C=CCCOc1ccc2c(cc1=O)[C@@H](NC(C)=O)CCc1cc(OC)c(OC)c(OC)c1-2` [Compound 4h], for which the IC50 is roughly 1.5 nM in data set [1] (Homo sapiens, average over cancer cell lines, read-out: Average anticancer IC50); 1.07 ± 0.12 nM in data set [2]; 1.69 ± 0.05 nM in data set [3] (Homo sapiens, SK-BR-3, 72 h); 1.27 ± 0.16 nM in data set [4]; 2.71 ± 0.08 nM in the data set “in vitro”; 1.22 ± 0.03 nM in data set [5]. Further, in data set [2] (SI = IC50 HDF/IC50 U-87), the “Selectivity index (SI), U-87” value was roughly 2.5.

As for `COc1cc2c(c(OC)c1OC)-c1ccc(OCc3cn(Cc4ccc(C#N)cc4)nn3)c(=O)cc1[C@@H](NC(C)=O)CC2` [Compound 6b], the IC50 in data set [2] is 3.74 ± 0.06 nM; in data set [3] (Homo sapiens, SK-BR-3, 72 h), 3.06 ± 0.03 nM; in data set [4], 3.97 ± 0.12 nM; in “in vitro”, 5.83 ± 0.31 nM; in data set [5] it was 3.15 ± 0.04 nM.

Consider `COc1cc2c(c(OC)c1OC)-c1ccc(OCc3ccc(I)cc3)c(=O)cc1[C@@H](NC(C)=O)CC2` [Compound 4b], for which the IC50 in data set [2] is 2.85 ± 0.03 nM; in data set [3] (Homo sapiens, SK-BR-3, 72 h), 2.77 ± 0.19 nM; in data set [4], 2.83 ± 0.26 nM; in the data set “in vitro”, 4.12 ± 0.01 nM; in data set [5], 2.41 ± 0.66 nM.

Regarding `CCOC(=O)COc1cc2c(ccc1=O)-c1c(cc(OC)c(OC)c1OC)CC[C@@H]2NC(C)=O` [Compound 3g], the IC50 in data set [2] is 1.41 ± 0.03 nM; in data set [3] (Homo sapiens, SK-BR-3, 72 h), 1.31 ± 0.08 nM; in data set [4] it was 1.37 ± 0.01 nM; in the data set “in vitro” it was 2.72 ± 0.03 nM; in data set [5] it was 1.62 ± 0.29 nM.

Consider `COc1cc2c(c(OC)c1OC)-c1ccc(OCc3cn([C@@H]4O[C@H](COC(C)=O)[C@@H](OC(C)=O)[C@H](OC(C)=O)[C@H]4NC(C)=O)nn3)c(=O)cc1[C@@H](NC(C)=O)CC2` [Compound 6d], for which the IC50 in data set [2] is 5.83 ± 0.15 nM; in data set [3] (Homo sapiens, SK-BR-3, 72 h), 5.21 ± 0.39 nM; in data set [4], 5.93 ± 0.12 nM; in the data set “in vitro”, 7.29 ± 0.41 nM; in data set [5] it was 5.04 ± 0.02 nM.

Take `COc1cc2c(c(OC)c1OC)-c1ccc(OCc3ccc(/C=C/c4cnc5ccccc5c4)cc3)c(=O)cc1[C@@H](NC(C)=O)CC2` [Compound 8c]: the IC50 in data set [1] (setting [7]) is 1.03 to 1.73 nM; in data set [2] it was 1.65 ± 0.03 nM; in data set [3] (Homo sapiens, SK-BR-3, 72 h), roughly 1 nM; in data set [3], 1.05 ± 0.06 nM; in data set [4], 1.41 ± 0.02 nM; in “in vitro”, 2.77 ± 0.25 nM. For the same compound, in data set [5], the IC50 was 1.47 ± 0.05 nM. Also, in data set [3] (SI = IC50 HDF/IC50 SKBR-3), the “Selectivity index (SI), SKBR-3” value is given as roughly 2.6.

As to `COc1cc2c(c(OC)c1OC)-c1ccc(=O)c(OCc3cn(CCCNC4=C5C[C@@H](C)C[C@H](OC)[C@H](O)[C@@H](C)/C=C(\C)[C@H](OC(N)=O)[C@@H](OC)/C=C\C=C(/C)C(=O)NC(=CC4=O)C5=O)nn3)cc1[C@@H](NC(C)=O)CC2` [Compound 5f], the IC50 in data set [2] amounted to 8.25 ± 0.11 nM; in data set [3] (Homo sapiens, SK-BR-3, 72 h), 8.91 ± 0.17 nM; in data set [4], 8.05 ± 0.58 nM; in the data set “in vitro” it was 10.4 ± 0.39 nM; in data set [5] it was 8.38 ± 0.09 nM.

Consider `C=CCCOc1cc2c(ccc1=O)-c1c(cc(OC)c(OC)c1OC)CC[C@@H]2NC(C)=O` [Compound 3h], for which the IC50 is 1.06 ± 0.03 nM in data set [2]; 1.04 ± 0.33 nM in data set [3] (Homo sapiens, SK-BR-3, 72 h); 1.99 ± 0.07 nM in data set [4]; 1.84 ± 0.11 nM in the data set “in vitro”; 1.53 ± 0.21 nM in data set [5].

For the compound `C=Cc1ccc(COc2ccc3c(cc2=O)[C@@H](NC(C)=O)CCc2cc(OC)c(OC)c(OC)c2-3)cc1` [Compound 4j], the IC50 in data set [2] is 3.11 ± 0.03 nM; in data set [3] (Homo sapiens, SK-BR-3, 72 h), 3.22 ± 0.36 nM; in data set [4] it was 3.01 ± 0.04 nM; in “in vitro”, 5.17 ± 0.28 nM; in data set [5] it was 3.05 ± 0.01 nM.

As usually defined, the IC50 is the midpoint of a concentration-inhibition curve.

(Values after PMC8788354 (Journal of Enzyme Inhibition and Medicinal Chemistry, 2022).)
